Experimental data as given in patent EP0846119B1, “THIENOPYRIMIDINE DERIVATIVES, THEIR PRODUCTION AND USE AS ENDOTHELIN ANTAGONISTS” (Takeda Chemical Industries, Ltd., priority 1995, dated 1997).

Tests used:
[1] = biological target: T1, human ETA 24 endothelin receptor (Homo sapiens, UniProt P25101); assay: Binding Test to ETA receptor expressed in CHO cell (ET-1-stimulated [3H]arachidonic acid release); format: cell-based; conditions: CHO cell expressing human ETA (ETA 24 cells), final concentration of ET-1 6.3x10^-10M, n=2
T1 construct: expressed in transfected cells; host or cells: CHO cells (clone ETA 24)
T1 sequence (P25101 21-427): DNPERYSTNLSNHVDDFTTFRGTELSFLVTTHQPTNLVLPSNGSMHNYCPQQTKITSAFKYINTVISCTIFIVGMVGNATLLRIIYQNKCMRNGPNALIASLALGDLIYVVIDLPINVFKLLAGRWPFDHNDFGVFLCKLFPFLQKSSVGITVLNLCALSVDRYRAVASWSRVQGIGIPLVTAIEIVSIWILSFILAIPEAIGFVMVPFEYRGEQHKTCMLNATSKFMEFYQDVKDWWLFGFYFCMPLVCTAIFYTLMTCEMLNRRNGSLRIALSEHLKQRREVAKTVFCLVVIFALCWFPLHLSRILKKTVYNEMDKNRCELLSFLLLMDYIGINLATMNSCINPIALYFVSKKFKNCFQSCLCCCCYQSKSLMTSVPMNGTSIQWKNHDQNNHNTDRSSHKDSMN
Experimental: Binding Test to ETA receptor expressed in CHO cell:
cells: CHO cell expressing human ETA 24 endothelin receptor, i.e. ETA 24 cells medium: DMEM 10% FCS Gln, nonessential amino acids, penicillin, streptomycin
(§1) Cells were seeded in 12 wells of 24 well plates at a density of 2x10^5 cells/well (1 ml medium/well). On the next day, [^3H]arachidonic acid was added to each well to be 250 nCi(nanocurie)/ml. On the next day, the medium was sucked from the wells by the use of an aspirator to remove free arachidonic acid and floating cells, and then 0.5 ml of medium was added. This procedure was repeated again. After allowing to stand for 30 minutes in a CO2 incubator, the medium was exchanged rapidly.
The sample of compound obtained in Example 5 or compound 16 of Example 11 was stepwise diluted with a buffer solution for dilution, containing 3.15x10^-8M endothelin-1 (ET-1) {20 mM Tris, 5 mM Mg(AcO)2, 2 mM EGTA, 0.03% NaN3, 0.1% BSA, 0.05% CHAPS}. 10 µl of the solution was added to each well (final concentration of ET-1: 6.3x10^-10M). […] After allowing to-stand for 30 minutes in the CO2 incubator, the medium was completely collected and the radio activity of [^3H]arachidonic acid released in the medium was measured by a liquid scintillation counter. IC50 values were calculated by hill plot from the concentration and relative reaction value of each sample. […]

[2] = biological target: T2, human ETB endothelin receptor (Homo sapiens, UniProt P24530); assay: Binding Test to ETB receptor expressed in CHO cell (ET-1-stimulated [3H]arachidonic acid release); format: cell-based; conditions: CHO cell expressing human ETB (ETB 12 cells), final concentration of ET-1 6.3x10^-10M, n=2
T2 construct: expressed in transfected cells; host or cells: CHO cells (clone ETB 12)
T2 sequence (P24530 27-442): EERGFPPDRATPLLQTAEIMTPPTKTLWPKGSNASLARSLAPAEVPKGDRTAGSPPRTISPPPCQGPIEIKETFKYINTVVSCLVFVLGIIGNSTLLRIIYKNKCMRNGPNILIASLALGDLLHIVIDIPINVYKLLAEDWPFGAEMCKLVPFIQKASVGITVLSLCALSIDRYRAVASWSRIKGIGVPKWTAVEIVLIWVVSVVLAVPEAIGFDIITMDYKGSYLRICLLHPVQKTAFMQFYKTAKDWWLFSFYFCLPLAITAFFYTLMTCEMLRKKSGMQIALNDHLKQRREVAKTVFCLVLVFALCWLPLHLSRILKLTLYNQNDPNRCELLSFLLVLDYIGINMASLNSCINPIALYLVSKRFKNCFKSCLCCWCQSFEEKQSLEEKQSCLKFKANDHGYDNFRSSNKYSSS
Experimental: Binding Test to ETB receptor expressed in CHO cell:
cells: CHO cell expressing human ETB endothelin receptor, i.e. ETB 12 cells medium: DMEM 10% FCS Gln, nonessential amino acids, penicillin, streptomycin
as §1, with “agian.” for “again.”, “30minutes” for “30 minutes”
The sample of compound obtained in Example 5 or compound 16 of Example 11 was stepwise diluted with a buffer solution for dilution, containing 3.15x10^-8M endothelin-1 (ET-1) {20 mM Tris, 5mM Mg(AcO)2, 2 mM EGTA, 0.03% NaN3, 0.1% BSA, 0.05% CHAPS}. 10 µl of the solution was added to each well (final concentration of ET-1: 6.3x10^-10M). […] After allowing to-stand for 30 minutes in the CO2 incubator, the medium was completely collected and the radio activity of [^3H]arachidonic acid released in the medium was measured by a liquid scintillation counter. IC50 values were calculated by Hill Plot from the concentration and relative reaction value of each sample.

Molecule `CCS(=O)(=O)NCc1c(-c2ccc(OCOC)cc2)sc2c1c(=O)n(CC(=O)O)c(=O)n2Cc1ccccc1SC` [11(16), 2,4(1H,3H)-Dioxo-6-(4-methoxymethoxyphenyl)-1-(2-methylthiobenzyl)-5-(ethanesulfonamidomethyl)thieno[2,3-d]pyrimidine-3-acetic acid] has an IC50 [1] of 110 nM and an IC50 [2] of 130 nM.
With `COCOc1ccc(-c2sc3c(c2CNS(C)(=O)=O)c(=O)n(CC(=O)O)c(=O)n3Cc2ccccc2SC)cc1` [Example 5, 2,4(1H,3H)-dioxo-6-(4-methoxymethoxyphenyl)-1-(2-methylthiobenzyl)-5-(methanesulfonamidomethyl)thieno[2,3-d]pyrimidine-3-aretic acid] the IC50 [1] was 390 nM and the IC50 [2] was 490 nM.
